According to US20020164397A1, “N-[N-(3, 3-DIMETHYLBUTYL)-L-ALPHA-ASPARTYL]-L-PHENYLALANINE 1-METHYL ESTER AS A SWEETENER IN CHEWING GUM” (priority 1998, published 2002):
Where “and” joins values, the source holds several entries; their conditions need not be identical. Equal values may be shown once. Where a SMILES comes first, the peptide text is derived from it.

Key:
[1] = Peppermint flavor intensity of chewing gums versus chewing time, trained panel of experts (0-15 scale); assay type: in vivo
Experimental: FIG. 2 is a plot of peppermint flavor intensity verses chewing time of chewing gums prepared with isosweet levels of aspartame (3000 ppm) and neotame (100 ppm). The chewing gum prepared with aspartame comprised a 1.5 wt % peppermint flavor, while the four neotame chewing gums comprised peppermint flavor at concentrations of 1.5, 1.25, 1.00, and 0.75 wt %. The peppermint flavor intensity was measured by a trained panel of experts and is plotted as a function of chewing time. The peppermint flavor intensity is expressed as the amount of peppermint flavor based on a universal peppermint intensity scale of 0-15 units.
As in the case of sweetness intensity comparisons, since the chewing gums were prepared with an identical amount of flavor and the scale is a measure of absolute flavor at any point during chewing, the different flavor profiles can be compared directly to each other. The rate of flavor intensity loss of the chewing gum comprising neotame is 0.0875 flavor intensity units per minute, while that of chewing gum comprising aspartame was determined to be 0.150 flavor intensity units per minute. Thus, the rate of flavor loss of a chewing gum comprising neotame is nearly half that of the flavor loss for a chewing gum comprising aspartame at an isosweet level and containing an equal concentration of peppermint flavor.
Table 4 summarizes the half-lives of both sweetness and flavor of chewing gums prepared with aspartame (3000 ppm) with 1.5 wt % flavor and neotame (100 ppm) with 1.5, 1.25, 1.00, and 0.75 wt % flavor amounts. The half-life is the time in minutes for the intensity to fall to half of its maximum value (sweetness, 2 minutes; flavor, 4 minutes).
(§1) The sensory profiling of chewing gum samples was carried out using the Spectrum Method of Descriptive Analysis (Meilgaard, M., Civille, G. V., Carr, B. T, 1999. Sensory Evaluation Techniques, 3rd Ed. CRC Press, New York, p. 173-229). Extensive sensory training was conducted in order to familiarize the panel, consisting of 6-8 individuals, with a product category, exposing the panel to the flavor attributes of the category and in-depth practice by the panelists in the use of a fifteen point scale for describing intensity differences. Once trained, the method enabled the trained panelists to indicate the sensory intensity of either sweetness intensity or flavor intensity in a universal context, where 0 indicates “none” of the attribute present, 2 approximates “threshold” intensities, 5 “slight or low” level, 7.5 “moderate” intensity, 10 “strong” and 15 “extreme”.
Chewing of the gums was initiated by the panel leader while starting a timer. As the time intervals 0.25, 0.5, 1.0, 2.0, 3.0, 4.0, 6.0, 8.0, 10.0, 12.0, 16.0, and 20.0 minutes approached, the panel leader gave panelists a five second warning and then called out the time to rate the attributes. To minimize fatigue, 3-4 samples were evaluated during one session. Samples were assessed in duplicate, presented in a balanced order, unwrapped in two ounce plastic cups, and randomly coded with three-digit numbers. The panelists were given a ten minute break between samples to minimize carry-over effects. Water, Mott's Natural Applesauce and unsalted soda crackers were given as palate cleansers.
The data was analyzed for standard ANOVA for across sample comparison of attributes at each chew time. Data was then plotted as a graph of intensities vs. chewing time yielding either a sweetness or flavor profile for the entire chew time.

[2] = Sweetness intensity of chewing gums versus chewing time, trained panel of experts (0-15 scale); assay type: in vivo; conditions: for average sweetness loss rate at 6-10 minutes / average sweetness intensity at 6-10 minutes / average sweetness loss rate at 10-20 minutes / average sweetness intensity at 10-20 minutes: isosweet sweetener concentrations; for average sweetness loss rate at 6-10 minutes / average sweetness intensity at 6-10 minutes: chewing time 6-10 minutes; for average sweetness intensity at 6-10 minutes / average sweetness intensity at 10-20 minutes: scale 0-15; for average sweetness loss rate at 10-20 minutes / average sweetness intensity at 10-20 minutes: chewing time 10-20 minutes
Experimental: FIG. 1 is a plot of the sweetness intensity of chewing gum prepared with sugar (sucrose), saccharin, aspartame, acesulfame-K, sucralose or neotame as a function of chewing time. Each chewing gum comprises the corresponding sweetener at a sweetener concentration that provides an identical (“isosweet”) degree of sweetness. The sweetness intensity was measured by a trained panel of experts and is expressed as the amount of sweetness based on a sweetness intensity scale of 0-15 units.
The sweetness profile of neotame in chewing gum is illustrated in FIG. 1. Also illustrated in FIG. 1 is a comparison of the sweetness intensity profiles, as measured by a trained panel of experts, of chewing gums prepared with neotame, aspartame, acesulfame-K, saccharin, sucralose, and sugar (sucrose). The sweetness detected is expressed as the amount of sweetness based on a universal sweetness scale of 0-15, and the values were obtained by having subjects of the trained panel chew pieces of gum containing the sweetener and reporting perceived sweetness after various chewing intervals. Since each chewing gum was prepared with an “isosweet” concentration (i.e., same level of sweetness; e.g., 100 ppm neotame and 3000 ppm aspartame are isosweet concentrations) of the respective sweetener and the scale is a measure of absolute sweetness at any point during chewing, the different sweetener profiles can be compared directly to each other.
Table 1 summarizes the sweetness intensity loss rates and average sweetness intensities which occur at a chewing time period of between 6 and 10 minutes and those which occur at a chewing time period between 10 and 20 minutes for a variety of sweeteners. The sweetness intensity loss rate is calculated as the difference in sweetness intensities measured at any two time points divided by the number of minutes of the time interval, and approximates the mathematical slope of the downward trend of sweetness intensity over time.
These values were determined by calculating the average sweetness intensity measured at the specified evaluation times. For example, for the chewing gum comprising neotame at between 6 and 10 minutes, the average sweetness intensity is determined to be (5.2+4.6+4.2)/3=4.7.
The advantage of sweetness extension provided by neotame can also be illustrated by comparison of the sweetness intensity half-lives over time. Table 2 summarizes the half-lives of sweetness intensity of chewing gums comprising different sweeteners after the maximum sweetness intensities (around two minutes) are reached. The half-life is a measure of the time of chewing in which half of the sweetness is lost relative to the time in which the sweetness intensity maximum is achieved.
as §1
Chewing of the gums was initiated by the panel leader while starting a timer. As the time intervals 0.25, 0.5, 1.0, 2.0, 3.0, 4.0, 6.0, 8.0, 10.0, 12.0, 16.0, and 20.0 minutes approached, the panel leader gave panelists a five second warning and then called out the time to rate the attributes. To minimize fatigue, 3-4 samples were evaluated during one session. […]

[3] = relative to sucrose; cited from earlier work
[4] = 1.50% flavor, time for intensity to fall to half of its maximum (4 minutes), aspartame 3000 ppm / neotame 100 ppm
[5] = 1.50% peppermint flavor, isosweet aspartame 3000 ppm / neotame 100 ppm
[6] = 1.50% flavor, time for intensity to fall to half of its maximum (2 minutes), aspartame 3000 ppm / neotame 100 ppm
[7] = chewing time in which half of the sweetness is lost relative to the sweetness intensity maximum, isosweet concentrations
[8] = 0.75% peppermint flavor, neotame 100 ppm
[9] = 1.00% peppermint flavor, neotame 100 ppm
[10] = 1.25% peppermint flavor, neotame 100 ppm
[11] = flavor amounts less than full-flavored (reduced to at least around 50%)
[12] = full-flavored chewing gum, about 4 to about 20 minutes of chewing

## COC(=O)[C@H](Cc1ccccc1)NC(=O)[C@@H](N)CC(=O)O [aspartame] (HELM PEPTIDE1{D.F.[CO[*:1]]}$$$$V2.0)
[1]; [4]
  half-life of peppermint flavor intensity: 19.7 min
[1]; [5]
  average flavor intensity at 4-20 minutes: 4.2 intensity units
  flavor loss rate at 4-20 minutes: 0.150 flavor intensity units per minute
[2]; [6]
  half-life of sweetness intensity: 7.6 min
[2]; chewing gum
  average sweetness loss rate at 6-10 minutes: 0.52 intensity units/min
  average sweetness intensity at 6-10 minutes: 4.6 intensity units
  average sweetness loss rate at 10-20 minutes: 0.25 intensity units/min
  average sweetness intensity at 10-20 minutes: 2.3 intensity units
[2]; [7]
  half-life of sweetness intensity: 6.4 min

## OC[C@H]1O[C@H](O[C@]2(CCl)O[C@H](CCl)[C@@H](O)[C@@H]2O)[C@H](O)[C@@H](O)[C@H]1Cl [sucralose]
[2]; chewing gum
  average sweetness loss rate at 6-10 minutes: 0.52 intensity units/min
  average sweetness intensity at 6-10 minutes: 3.3 intensity units
  average sweetness loss rate at 10-20 minutes: 0.16 intensity units/min
  average sweetness intensity at 10-20 minutes: 1.3 intensity units
[2]; [7]
  half-life of sweetness intensity: 4.5 min

## COC(=O)[C@H](Cc1ccccc1)NC(=O)[C@H](CC(=O)O)NCCC(C)(C)C [neotame, N-[N-(3,3-dimethylbutyl)-L-α-aspartyl]-L-phenylalanine 1-methyl ester]
[1]; 0.75% flavor, neotame 100 ppm
  half-life of peppermint flavor intensity: 33.1 min
[1]; [8]
  average flavor intensity at 4-20 minutes: 3.9 intensity units
  flavor loss rate at 4-20 minutes: 0.070 flavor intensity units per minute
[1]; 1.00% flavor, neotame 100 ppm
  half-life of peppermint flavor intensity: 31.7 min
[1]; [9]
  average flavor intensity at 4-20 minutes: 4.0 intensity units
  flavor loss rate at 4-20 minutes: 0.075 flavor intensity units per minute
[1]; 1.25% flavor, neotame 100 ppm
  half-life of peppermint flavor intensity: 31.3 min
[1]; [10]
  average flavor intensity at 4-20 minutes: 4.2 intensity units
  flavor loss rate at 4-20 minutes: 0.088 flavor intensity units per minute
[1]; [4]
  half-life of peppermint flavor intensity: 44.3 min
[1]; [5]
  average flavor intensity at 4-20 minutes: 4.6 intensity units
  flavor loss rate at 4-20 minutes: 0.0875 flavor intensity units per minute and 0.088 flavor intensity units per minute
[1]; chewing gums comprising neotame having less flavor amounts than 1.5%
  average flavor intensities at 4-20 minutes: around 4.0 intensity units
[1]; [11]
  average flavor intensity: ≥ 3.5 flavor intensity units
  average flavor loss rate: less than 0.1 flavor intensity units per minute
[1]; [12]
  average flavor intensity: ≥ 4 flavor intensity units
  average flavor loss rate: less than 0.1 flavor intensity units per minute
[2]; 0.75% flavor, neotame 100 ppm
  half-life of sweetness intensity: 16.9 min
[2]; 1.00% flavor, neotame 100 ppm
  half-life of sweetness intensity: 20.7 min
[2]; 1.25% flavor, neotame 100 ppm
  half-life of sweetness intensity: 17.2 min
[2]; [6]
  half-life of sweetness intensity: 17.0 min
[2]; chewing gum, 100 ppm neotame, 6 minutes of chewing
  sweetness intensity at 6 minutes: 5.2 sweetness intensity units
[2]; chewing gum, 100 ppm neotame, 10 minutes of chewing
  sweetness intensity at 10 minutes: 4.2 sweetness intensity units
[2]; chewing gum, 100 ppm neotame, evaluation time between 6 and 10 minutes
  sweetness intensity at 8 minutes: 4.6 sweetness intensity units
[2]; [7]
  half-life of sweetness intensity: 14.9 min
[3]
  sweetness potency (× sweeter than sucrose): about 8000 ×

## OC[C@H]1O[C@@](CO)(O[C@H]2O[C@H](CO)[C@@H](O)[C@H](O)[C@H]2O)[C@@H](O)[C@@H]1O [sucrose]
[2]; chewing gum
  average sweetness loss rate at 6-10 minutes: 0.45 intensity units/min
  average sweetness intensity at 6-10 minutes: 2.1 intensity units
  average sweetness loss rate at 10-20 minutes: 0.11 intensity units/min
  average sweetness intensity at 10-20 minutes: 0.6 intensity units
[2]; [7]
  half-life of sweetness intensity: 3.5 min

## CC1=CC(=O)[N-]S(=O)(=O)O1.[K+] [acesulfame-K, the potassium salt of 3,4-dihydro-6-methyl-1,2,3-oxathiazine-4-one-2,2-dioxide]
[2]; chewing gum
  average sweetness loss rate at 6-10 minutes: 0.45 intensity units/min
  average sweetness intensity at 6-10 minutes: 4.3 intensity units
  average sweetness loss rate at 10-20 minutes: 0.26 intensity units/min
  average sweetness intensity at 10-20 minutes: 2.0 intensity units
[2]; [7]
  half-life of sweetness intensity: 5.5 min

## O=C1NS(=O)(=O)c2ccccc21 [saccharin]
[2]; chewing gum
  average sweetness loss rate at 6-10 minutes: 0.52 intensity units/min
  average sweetness intensity at 6-10 minutes: 3.1 intensity units
  average sweetness loss rate at 10-20 minutes: 0.15 intensity units/min
  average sweetness intensity at 10-20 minutes: 1.2 intensity units
[2]; [7]
  half-life of sweetness intensity: 4.5 min
